Clc1cc(Cl)c(OCCBr)c(Cl)c1
solubility (mole fraction)
Details | in acetone | in acetonitrile | in ethanol | in isopropanol | in methanol | in n-heptane | in n-propanol
278.1 K | – | – | – | 0.00574 | 0.00356 | – | 0.0098
278.2 K | 0.094 | 0.0146 | 0.00698 | – | – | 0.0388 | –
283.1 K | 0.105 | – | 0.00794 | – | 0.00448 | 0.047 | –
283.2 K | – | 0.0176 | – | 0.00688 | – | – | 0.0105
288.1 K | 0.117 | – | – | – | 0.00563 | 0.057 | –
288.2 K | – | 0.0211 | 0.0086 | 0.00825 | – | – | 0.0113
293.1 K | 0.131 | 0.0253 | 0.00968 | 0.0099 | – | 0.069 | –
293.2 K | – | – | – | – | 0.0071 | – | 0.0121
298.1 K | – | – | 0.0108 | – | – | 0.0839 | 0.013
298.2 K | 0.146 | 0.0304 | – | 0.0118 | 0.00892 | – | –
303.1 K | – | 0.0364 | 0.012 | – | – | – | –
303.2 K | 0.163 | – | – | 0.0142 | 0.0112 | 0.102 | 0.014
308.1 K | – | – | – | – | 0.0141 | – | 0.0151
308.2 K | 0.182 | 0.0437 | 0.0134 | 0.017 | – | 0.123 | –
313.1 K | 0.203 | – | – | 0.0204 | – | 0.15 | –
313.2 K | – | 0.0525 | 0.0149 | – | 0.0177 | – | 0.0162
318.1 K | – | – | 0.0166 | 0.0245 | – | – | 0.0174
318.2 K | 0.226 | 0.063 | – | – | 0.0223 | 0.182 | –
323.1 K | – | – | – | – | 0.0281 | 0.22 | –
323.2 K | 0.253 | 0.076 | 0.0186 | 0.0294 | – | – | 0.0187

— BigSolDB 2.1
